From ChEMBL document CHEMBL4680347, “Discovery of novel 1,3,5-triazine derivatives as potent inhibitor of cervical cancer via dual inhibition of PI3K/mTOR” (Bioorg Med Chem, 2021)
The source made the active and inactive calls. The rule behind the calls is not given here.

Assays:
[1] = target: Phosphatidylinositol 4,5-bisphosphate 3-kinase catalytic subunit alpha isoform (Homo sapiens, UniProt P42336); test: Inhibition of PI3Kalpha (unknown origin) measured after 1 hr by ADP-glo plus luminescence assay
Sequence of Phosphatidylinositol 4,5-bisphosphate 3-kinase catalytic subunit alpha isoform (P42336 whole entry, canonical isoform): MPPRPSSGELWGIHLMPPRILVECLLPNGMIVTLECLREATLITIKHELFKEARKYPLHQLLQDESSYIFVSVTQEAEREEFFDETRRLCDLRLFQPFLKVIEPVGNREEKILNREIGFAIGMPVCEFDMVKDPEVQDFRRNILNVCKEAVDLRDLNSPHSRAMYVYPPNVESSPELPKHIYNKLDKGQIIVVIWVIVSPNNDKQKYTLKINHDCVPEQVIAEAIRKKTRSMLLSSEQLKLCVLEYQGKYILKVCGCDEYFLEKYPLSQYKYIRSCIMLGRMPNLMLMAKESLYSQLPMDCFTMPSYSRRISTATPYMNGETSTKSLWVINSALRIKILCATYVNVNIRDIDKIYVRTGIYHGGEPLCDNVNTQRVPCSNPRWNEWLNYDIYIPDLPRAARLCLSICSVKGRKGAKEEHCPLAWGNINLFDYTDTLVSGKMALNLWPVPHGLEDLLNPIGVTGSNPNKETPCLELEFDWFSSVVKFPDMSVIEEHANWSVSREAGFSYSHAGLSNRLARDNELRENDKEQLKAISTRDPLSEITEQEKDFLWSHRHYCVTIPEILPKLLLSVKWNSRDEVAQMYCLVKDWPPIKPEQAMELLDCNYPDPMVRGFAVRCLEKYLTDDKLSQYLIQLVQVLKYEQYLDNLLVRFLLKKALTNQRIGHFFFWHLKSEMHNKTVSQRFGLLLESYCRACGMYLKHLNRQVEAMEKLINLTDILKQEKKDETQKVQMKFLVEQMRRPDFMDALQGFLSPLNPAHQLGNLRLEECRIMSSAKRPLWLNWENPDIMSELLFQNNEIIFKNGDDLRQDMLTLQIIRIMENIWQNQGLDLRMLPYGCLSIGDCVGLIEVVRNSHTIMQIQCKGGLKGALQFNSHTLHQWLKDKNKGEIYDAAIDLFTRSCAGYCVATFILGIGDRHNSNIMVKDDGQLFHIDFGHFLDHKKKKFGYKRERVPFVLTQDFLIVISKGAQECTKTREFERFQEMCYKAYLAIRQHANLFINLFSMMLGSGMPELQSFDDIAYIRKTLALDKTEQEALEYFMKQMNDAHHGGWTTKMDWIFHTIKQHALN

[2] = target: Serine/threonine-protein kinase mTOR (Homo sapiens, UniProt P42345); test: Inhibition of mTOR (unknown origin) measured after 45 mins by LANCE Ultra assay
[3] = tested on: MDA-MB-231; test: Anticancer activity against human […] cells assessed as inhibition of cell proliferation measured after 48 hrs by MTT assay; assay type: functional, cell-based; details: MDA-MB-231, 48 h
[4] = target: Phosphatidylinositol 4,5-bisphosphate 3-kinase catalytic subunit beta isoform (Homo sapiens, UniProt P42338); test: Inhibition of PI3Kbeta (unknown origin) measured after 1 hr by ADP-glo plus luminescence assay
Sequence of Phosphatidylinositol 4,5-bisphosphate 3-kinase catalytic subunit beta isoform (P42338 whole entry, canonical isoform): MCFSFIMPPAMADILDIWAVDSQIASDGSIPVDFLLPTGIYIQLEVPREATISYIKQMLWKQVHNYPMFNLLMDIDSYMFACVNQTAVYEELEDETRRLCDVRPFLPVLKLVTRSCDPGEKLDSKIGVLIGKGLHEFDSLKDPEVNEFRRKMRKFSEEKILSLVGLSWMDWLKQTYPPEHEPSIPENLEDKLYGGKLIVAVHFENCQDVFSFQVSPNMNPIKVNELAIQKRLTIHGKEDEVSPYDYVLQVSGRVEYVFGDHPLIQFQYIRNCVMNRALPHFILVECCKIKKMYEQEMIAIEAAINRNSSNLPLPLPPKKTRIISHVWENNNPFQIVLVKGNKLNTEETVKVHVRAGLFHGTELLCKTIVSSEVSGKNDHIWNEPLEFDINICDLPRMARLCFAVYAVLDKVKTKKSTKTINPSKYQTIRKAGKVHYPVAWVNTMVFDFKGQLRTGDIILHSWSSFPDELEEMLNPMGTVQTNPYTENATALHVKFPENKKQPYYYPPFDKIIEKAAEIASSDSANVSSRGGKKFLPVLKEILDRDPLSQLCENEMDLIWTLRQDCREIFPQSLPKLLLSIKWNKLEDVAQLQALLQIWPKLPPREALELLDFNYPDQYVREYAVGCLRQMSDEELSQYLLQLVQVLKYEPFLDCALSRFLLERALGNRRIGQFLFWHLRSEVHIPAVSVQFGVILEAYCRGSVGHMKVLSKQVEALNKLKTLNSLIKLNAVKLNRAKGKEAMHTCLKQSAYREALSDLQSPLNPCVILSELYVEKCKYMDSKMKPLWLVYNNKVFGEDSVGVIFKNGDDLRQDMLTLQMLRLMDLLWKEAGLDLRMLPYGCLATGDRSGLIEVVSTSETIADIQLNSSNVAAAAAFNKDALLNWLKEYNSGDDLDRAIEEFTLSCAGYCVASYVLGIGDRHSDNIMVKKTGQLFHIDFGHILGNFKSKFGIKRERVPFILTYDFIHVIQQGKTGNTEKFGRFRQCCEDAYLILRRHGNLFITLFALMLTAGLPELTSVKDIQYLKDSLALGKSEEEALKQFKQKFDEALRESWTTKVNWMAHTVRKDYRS

[5] = target: Phosphatidylinositol 4,5-bisphosphate 3-kinase catalytic subunit gamma isoform (Homo sapiens, UniProt P48736); test: Inhibition of PI3Kgamma (unknown origin) measured after 1 hr by ADP-glo plus luminescence assay
Sequence of Phosphatidylinositol 4,5-bisphosphate 3-kinase catalytic subunit gamma isoform (P48736 whole entry, canonical isoform): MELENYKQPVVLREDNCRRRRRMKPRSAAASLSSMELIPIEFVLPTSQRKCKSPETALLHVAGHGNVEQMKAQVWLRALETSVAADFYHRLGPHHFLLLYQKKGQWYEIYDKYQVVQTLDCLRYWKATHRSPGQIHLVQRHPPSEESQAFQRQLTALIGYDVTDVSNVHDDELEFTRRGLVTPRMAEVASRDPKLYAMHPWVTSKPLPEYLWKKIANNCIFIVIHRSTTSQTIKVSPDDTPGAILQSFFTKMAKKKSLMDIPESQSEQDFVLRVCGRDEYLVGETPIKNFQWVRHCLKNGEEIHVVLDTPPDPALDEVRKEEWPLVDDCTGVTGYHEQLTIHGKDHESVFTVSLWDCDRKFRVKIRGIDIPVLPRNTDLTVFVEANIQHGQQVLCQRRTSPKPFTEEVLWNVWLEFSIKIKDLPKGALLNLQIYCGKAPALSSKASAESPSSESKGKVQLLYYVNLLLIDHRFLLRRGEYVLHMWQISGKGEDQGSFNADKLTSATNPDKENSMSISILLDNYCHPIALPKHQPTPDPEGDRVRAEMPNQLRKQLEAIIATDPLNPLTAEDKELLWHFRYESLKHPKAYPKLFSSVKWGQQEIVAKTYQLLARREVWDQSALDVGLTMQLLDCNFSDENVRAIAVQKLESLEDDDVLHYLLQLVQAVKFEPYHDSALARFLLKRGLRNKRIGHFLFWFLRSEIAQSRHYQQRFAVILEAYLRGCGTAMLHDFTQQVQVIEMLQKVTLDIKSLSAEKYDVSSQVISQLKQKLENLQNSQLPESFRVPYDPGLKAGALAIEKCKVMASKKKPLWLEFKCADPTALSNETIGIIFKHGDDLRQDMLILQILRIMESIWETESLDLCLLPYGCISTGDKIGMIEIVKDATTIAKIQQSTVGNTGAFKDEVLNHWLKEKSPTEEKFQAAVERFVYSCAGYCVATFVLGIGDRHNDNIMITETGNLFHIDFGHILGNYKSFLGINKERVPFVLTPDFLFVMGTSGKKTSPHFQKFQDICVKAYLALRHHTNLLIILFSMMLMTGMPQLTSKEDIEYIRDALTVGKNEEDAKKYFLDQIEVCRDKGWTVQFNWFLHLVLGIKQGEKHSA

[6] = target: T1, Phosphatidylinositol 4,5-bisphosphate 3-kinase catalytic subunit delta isoform (Homo sapiens, UniProt O00329); test: Inhibition of PI3Kdelta (unknown origin) measured after 1 hr by ADP-glo plus luminescence assay
T1 sequence (O00329 whole entry): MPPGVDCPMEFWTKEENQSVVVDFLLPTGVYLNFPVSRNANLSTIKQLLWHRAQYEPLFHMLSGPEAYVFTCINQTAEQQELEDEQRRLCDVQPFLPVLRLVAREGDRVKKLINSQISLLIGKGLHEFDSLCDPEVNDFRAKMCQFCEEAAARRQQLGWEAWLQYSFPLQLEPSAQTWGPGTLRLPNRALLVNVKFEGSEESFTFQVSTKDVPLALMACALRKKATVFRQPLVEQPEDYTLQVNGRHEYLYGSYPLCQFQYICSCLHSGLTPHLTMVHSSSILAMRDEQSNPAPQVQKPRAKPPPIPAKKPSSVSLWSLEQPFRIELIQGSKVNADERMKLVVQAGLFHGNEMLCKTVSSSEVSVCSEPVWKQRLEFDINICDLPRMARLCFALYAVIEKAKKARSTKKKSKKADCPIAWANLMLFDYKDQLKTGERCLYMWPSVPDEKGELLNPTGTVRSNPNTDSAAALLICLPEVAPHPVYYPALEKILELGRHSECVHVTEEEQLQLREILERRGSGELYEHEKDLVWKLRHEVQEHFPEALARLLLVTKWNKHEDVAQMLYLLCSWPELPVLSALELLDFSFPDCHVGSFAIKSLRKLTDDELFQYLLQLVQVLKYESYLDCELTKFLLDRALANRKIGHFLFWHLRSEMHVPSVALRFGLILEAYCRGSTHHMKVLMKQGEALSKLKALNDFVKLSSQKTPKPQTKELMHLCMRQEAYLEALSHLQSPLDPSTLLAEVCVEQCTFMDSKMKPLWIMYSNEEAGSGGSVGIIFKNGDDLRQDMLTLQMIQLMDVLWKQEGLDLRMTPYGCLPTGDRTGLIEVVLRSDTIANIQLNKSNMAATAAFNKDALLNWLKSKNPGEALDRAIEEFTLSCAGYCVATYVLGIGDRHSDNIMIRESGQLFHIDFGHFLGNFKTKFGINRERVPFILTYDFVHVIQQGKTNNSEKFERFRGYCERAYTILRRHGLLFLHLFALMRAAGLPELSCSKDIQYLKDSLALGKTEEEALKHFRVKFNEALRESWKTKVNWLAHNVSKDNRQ

[7] = tested on: MCF7; test: Anticancer activity against human MCF-7 cells assessed as inhibition of cell proliferation measured after 48 hrs by MTT assay; assay type: functional, cell-based; details: MCF7, 48 h
[8] = tested on: HeLa; test: Anticancer activity against human HeLa cells assessed as inhibition of cell proliferation measured after 48 hrs by MTT assay; assay type: functional, cell-based
[9] = tested on: HepG2; test: Anticancer activity against human HepG2 cells assessed as inhibition of cell proliferation measured after 48 hrs by MTT assay; assay type: functional, cell-based; details: HepG2, 48 h
[10] = tested on: HeLa; test: Antiproliferative activity against human HeLa cells assessed as reduction in cell viability measured upto 12 uM by MTT assay; assay type: functional, cell-based; details: dose microM <=12, time 24-72 hrs, TDE = time-dependent effect
[11] = tested on: HeLa; test: Antiproliferative activity against human HeLa cells assessed as reduction in cell viability incubated for 24 to 72 hr by MTT assay; assay type: functional, cell-based; details: dose microM <=12, time 24-72 hrs
[12] = tested on: HeLa; test: Inhibition of colony formation in human HeLa cells measured after 24 hrs by crystal violet staining based colony formation assay; assay type: functional, cell-based; details: dose 4-12 µM
[13] = tested on: HeLa; test: Induction of cell cycle arrest in human HeLa cells assessed as accumulation at G1 phase at 4 uM after 24 hrs by RNase A/PI-staining based flow cytometric analysis (reference value: 52.21%); assay type: functional
[14] = tested on: HeLa; test: Induction of cell cycle arrest in human HeLa cells assessed as accumulation at G2 phase at 4 uM after 24 hrs by RNase A/PI-staining based flow cytometric analysis (reference value: 30.62%); assay type: functional
[15] = tested on: HeLa; test: Induction of cell cycle arrest in human HeLa cells assessed as accumulation at S phase at 4 uM after 24 hrs by RNase A/PI-staining based flow cytometric analysis (reference value: 17.17%); assay type: functional
[16] = tested on: HeLa; test: Induction of cell cycle arrest in human HeLa cells assessed as accumulation at G1 phase at 8 uM after 24 hrs by RNase A/PI-staining based flow cytometric analysis (reference value: 52.21%); assay type: functional
[17] = tested on: HeLa; test: Induction of cell cycle arrest in human HeLa cells assessed as accumulation at G2 phase at 8 uM after 24 hrs by RNase A/PI-staining based flow cytometric analysis (reference value: 30.62%); assay type: functional
[18] = tested on: HeLa; test: Induction of cell cycle arrest in human HeLa cells assessed as accumulation at S phase at 8 uM after 24 hrs by RNase A/PI-staining based flow cytometric analysis (reference value: 17.17%); assay type: functional
[19] = tested on: HeLa; test: Induction of cell cycle arrest in human HeLa cells assessed as accumulation at G1 phase at 12 uM after 24 hrs by RNase A/PI-staining based flow cytometric analysis (reference value: 52.21%); assay type: functional
[20] = tested on: HeLa; test: Induction of cell cycle arrest in human HeLa cells assessed as accumulation at G2 phase at 12 uM after 24 hrs by RNase A/PI-staining based flow cytometric analysis (reference value: 30.62%); assay type: functional
[21] = tested on: HeLa; test: Induction of cell cycle arrest in human HeLa cells assessed as accumulation at S phase at 12 uM after 24 hrs by RNase A/PI-staining based flow cytometric analysis (reference value: 17.17%); assay type: functional
[22] = tested on: HeLa; test: Inhibition of cell migration in human HeLa cells incubated for 72 hrs by wound healing assay; assay type: functional, cell-based; details: dose 4-12 µM
[23] = tested on: HeLa; test: Inhibition of cell invasion in human HeLa cells incubated for 24 hrs by crystal violet staining based transwell assay; assay type: functional; details: dose 4-12 µM
[24] = tested on: HeLa; test: Induction of apoptosis in human HeLa cells at 4 to 12 uM incubated for 48 hrs by Hoechst 33342 staining based fluorescence microscopy; assay type: functional, cell-based; details: dose 4-12 µM
[25] = tested on: HeLa; test: Induction of apoptosis in human HeLa cells assessed as early apoptotic cells at 4 uM measured after 24 hrs by Annexin-V/FITC and propidium iodide staining based flow cytometry (reference value: 1.60%); assay type: functional
[26] = tested on: HeLa; test: Induction of apoptosis in human HeLa cells assessed as late apoptotic cells at 4 uM measured after 24 hrs by Annexin-V/FITC and propidium iodide staining based flow cytometry (reference value: 3.4%); assay type: functional
[27] = tested on: HeLa; test: Induction of apoptosis in human HeLa cells assessed as early apoptotic cells at 8 uM measured after 24 hrs by Annexin-V/FITC and propidium iodide staining based flow cytometry (reference value: 1.60%); assay type: functional
[28] = tested on: HeLa; test: Induction of apoptosis in human HeLa cells assessed as late apoptotic cells at 8 uM measured after 24 hrs by Annexin-V/FITC and propidium iodide staining based flow cytometry (reference value: 3.4%); assay type: functional
[29] = tested on: HeLa; test: Induction of apoptosis in human HeLa cells assessed as early apoptotic cells at 12 uM measured after 24 hrs by Annexin-V/FITC and propidium iodide staining based flow cytometry (reference value: 1.60%); assay type: functional
[30] = tested on: HeLa; test: Induction of apoptosis in human HeLa cells assessed as late apoptotic cells at 12 uM measured after 24 hrs by Annexin-V/FITC and propidium iodide staining based flow cytometry (reference value: 3.4%); assay type: functional
[31] = tested on: HeLa; test: Induction of apoptosis in human HeLa cells assessed as reduction in BAX level upto 12 uM by Western blot analysis; assay type: functional, cell-based; details: dose microM <=12
[32] = tested on: HeLa; test: Induction of apoptosis in human HeLa cells assessed as increase in Bcl-2 level upto 12 uM by Western blot analysis; assay type: functional, cell-based; details: dose microM <=12
[33] = tested on: HeLa; test: Inhibition of PI3K/AKT pathway in human HeLa cells assessed as reduction phosphorylated PI3K level upto 12 uM by Western blot analysis; assay type: cell-based; details: dose microM <=12
[34] = tested on: HeLa; test: Antitumor activity against human HeLa cells xenografted in orally dosed BALB/c mouse assessed as reduction in tumor volume measured for 24 days; assay type: functional, organism-based; details: dose 5-15 mg/kg, time 24.0 day
[35] = tested on: HeLa; test: Antitumor activity against human HeLa cells xenografted in orally dosed BALB/c mouse assessed as reduction in tumor weight measured for 24 days; assay type: functional, organism-based; details: dose 5-15 mg/kg, time 24.0 day
[36] = tested on: HeLa; test: Inhibition of PI3K/AKT pathway in human HeLa cells assessed as reduction phosphorylated Akt level upto 12 uM by Western blot analysis; assay type: cell-based; details: dose microM <=12
[37] = tested on: Mus musculus; test: Reduction in p-PI3K levels in BALB/c mouse tumor xenografted with human HeLa cells at 5 to 15 mg/kg, po by Western blot analysis; assay type: functional, organism-based; details: Neoplasm, dose 5-15 mg/kg
[38] = tested on: Mus musculus; test: Reduction in p-AKT levels in BALB/c mouse tumor xenografted with human HeLa cells at 5 to 15 mg/kg, po by Western blot analysis; assay type: functional, organism-based; details: Neoplasm, dose 5-15 mg/kg
[39] = tested on: Mus musculus; test: Reduction in p-mTOR levels in BALB/c mouse tumor xenografted with human HeLa cells at 5 to 15 mg/kg, po by Western blot analysis; assay type: functional, organism-based; details: Neoplasm, dose 5-15 mg/kg

Compound `O=S(=O)(c1ccc(Cl)cc1)N1CCN(c2nc(NCCN3CCOCC3)nc(N3CCOCC3)n2)CC1` has an IC50 [1] of 0.0309 µM and an IC50 [2] of 0.0282 µM.
With `O=S(=O)(c1cccc(F)c1)N1CCN(c2nc(NCCN3CCOCC3)nc(N3CCOCC3)n2)CC1` the IC50 [1] was 0.11 µM and the IC50 [2] was 0.0937 µM.
Compound `Cc1ccc(S(=O)(=O)N2CCN(c3nc(NCCN4CCOCC4)nc(N4CCOCC4)n3)CC2)cc1` has an IC50 [1] of 0.00603 µM and an IC50 [2] of 0.0128 µM.
Work on `COc1ccccc1S(=O)(=O)N1CCN(c2nc(NCCN3CCOCC3)nc(N3CCOCC3)n2)CC1` yielded an IC50 [1] of 0.0397 µM and an IC50 [2] of 0.0255 µM.
`O=S(=O)(c1cccc(O)c1)N1CCN(c2nc(NCCN3CCOCC3)nc(N3CCOCC3)n2)CC1` was tested, and the IC50 [1] was 0.0156 µM and the IC50 [2] was 0.0218 µM.
`O=[N+]([O-])c1ccc(S(=O)(=O)N2CCN(c3nc(NCCN4CCOCC4)nc(N4CCOCC4)n3)CC2)cc1` showed an IC50 [1] of 0.0336 µM and an IC50 [2] of 0.0418 µM.
In the case of `O=S(=O)(c1ccccc1Cl)N1CCN(c2nc(NCCN3CCOCC3)nc(N3CCOCC3)n2)CC1`, the IC50 [1] is reported as 0.0554 µM and the IC50 [2] is reported as 0.0353 µM.
Compound `O=S(=O)(c1cccc(Cl)c1)N1CCN(c2nc(NCCN3CCOCC3)nc(N3CCOCC3)n2)CC1` has an IC50 [1] of 0.0375 µM.
For `Cc1cccc(S(=O)(=O)N2CCN(c3nc(NCCN4CCOCC4)nc(N4CCOCC4)n3)CC2)c1`, the IC50 [1] was 0.0187 µM.
Work on `O=S(=O)(c1ccc(O)cc1)N1CCN(c2nc(NCCN3CCOCC3)nc(N3CCOCC3)n2)CC1` yielded an IC50 [3] of 15.8 µM, an IC50 [1] of 0.00341 µM and an IC50 [2] of 0.00845 µM. For the same compound, the IC50 [4] was 0.0123 µM, the IC50 [5] was 0.0246 µM and the IC50 [6] was 0.0353 µM. The IC50 [7] was 16.3 µM, the IC50 [8] was 2.21 µM and the IC50 [9] was 12.2 µM. For the same compound, the Activity [10] was “Tde”, the Activity [11] was “Dose-dependent effect” and the Activity [12] was “Dose-dependent effect”. It also gave an Activity [13] of 59.18%, an Activity [14] of 20.38% and an Activity [15] of 20.44%. For the same compound, the Activity [16] was 20.38%, the Activity [17] was 15.43% and the Activity [18] was 19.52%. For the same compound, the Activity [19] was 75.03%, the Activity [20] was 14.32% and the Activity [21] was 10.65%. The Activity [22] was “Dose-dependent effect”, the Activity [23] was “Dose-dependent effect” and the Activity [24] was “Active”. For the same compound, the Activity [25] was 2.71%, the Activity [26] was 5.07% and the Activity [27] was 1.84%. For the same compound, the Activity [28] was 16.94%, the Activity [29] was 2.1% and the Activity [30] was 17.98%. The Activity [31] was “Active”, the Activity [32] was “Active” and the inhibition [33] was “Dose-dependent effect”. For the same compound, the Activity [34] was “Dose-dependent effect”, the Activity [35] was “Dose-dependent effect” and the inhibition [36] was “Active”. For the same compound, the inhibition [37] was “Active”, the inhibition [38] was “Active” and the inhibition [39] was “Active”.
